Assay results reported in paper PMC9981747, “A covalent BTK ternary complex compatible with targeted protein degradation” (Nature Communications, 2023).
“And” between values parts separate entries of the source, which are not always exact repeats. Equal entries are not always repeated.

What was measured:
Assay type in all cases: cell-based
BTK^FL-C481S [1] = target: T1, BTK^FL-C481S (Homo sapiens, UniProt Q06187+Q13490, C481S); assay: Expi293 time-dependent degradation of BTK^FL-C481S; details: 5 µM; for BTK^FL-C481S blot signal normalized to time 0: replicates
T1 construct: we used a full-length BTK (aa1-659) with a C terminal Tobacco Etch Virus protease (TEV) site; expressed in transfected cells; host or cells: Expi293 (HEK293)
T1 sequence (Q06187 whole entry C481S, the tested form may be a part): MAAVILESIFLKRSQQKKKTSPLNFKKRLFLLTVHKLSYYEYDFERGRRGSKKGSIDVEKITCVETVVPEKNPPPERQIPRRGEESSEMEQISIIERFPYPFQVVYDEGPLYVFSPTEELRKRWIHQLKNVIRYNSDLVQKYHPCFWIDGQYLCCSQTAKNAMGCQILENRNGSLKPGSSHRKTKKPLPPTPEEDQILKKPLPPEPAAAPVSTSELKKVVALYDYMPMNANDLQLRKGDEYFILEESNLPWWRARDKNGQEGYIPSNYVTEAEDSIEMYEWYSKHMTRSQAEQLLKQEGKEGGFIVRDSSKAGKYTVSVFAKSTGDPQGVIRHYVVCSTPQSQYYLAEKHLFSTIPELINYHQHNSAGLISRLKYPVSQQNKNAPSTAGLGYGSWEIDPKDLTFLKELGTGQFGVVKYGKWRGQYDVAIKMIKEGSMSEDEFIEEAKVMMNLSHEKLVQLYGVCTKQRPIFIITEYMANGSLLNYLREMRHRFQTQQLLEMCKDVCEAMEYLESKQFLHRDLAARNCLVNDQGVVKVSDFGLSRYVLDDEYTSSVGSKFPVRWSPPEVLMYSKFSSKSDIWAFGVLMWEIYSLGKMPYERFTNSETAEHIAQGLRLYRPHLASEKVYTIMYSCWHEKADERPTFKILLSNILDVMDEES
T1 sequence (Q13490 whole entry, the tested form may be a part): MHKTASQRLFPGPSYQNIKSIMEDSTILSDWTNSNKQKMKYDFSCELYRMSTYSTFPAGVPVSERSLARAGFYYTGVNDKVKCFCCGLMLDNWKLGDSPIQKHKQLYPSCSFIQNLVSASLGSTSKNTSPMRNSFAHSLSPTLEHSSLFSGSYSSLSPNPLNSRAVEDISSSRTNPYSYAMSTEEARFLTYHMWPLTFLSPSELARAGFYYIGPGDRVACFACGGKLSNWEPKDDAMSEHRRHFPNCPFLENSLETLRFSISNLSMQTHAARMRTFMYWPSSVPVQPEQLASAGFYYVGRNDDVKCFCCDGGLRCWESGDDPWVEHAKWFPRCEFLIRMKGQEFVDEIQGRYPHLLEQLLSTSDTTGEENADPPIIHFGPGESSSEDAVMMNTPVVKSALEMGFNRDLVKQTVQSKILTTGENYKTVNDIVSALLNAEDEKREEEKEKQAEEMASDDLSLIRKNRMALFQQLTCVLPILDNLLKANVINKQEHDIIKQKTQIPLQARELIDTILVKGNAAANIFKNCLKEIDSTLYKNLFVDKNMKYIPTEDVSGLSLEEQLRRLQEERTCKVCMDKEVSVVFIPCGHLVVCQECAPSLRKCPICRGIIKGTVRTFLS
Description: (§1) Gibco Expi293 cell line Transfection Kit (Cat.# A14524) was cultured according to the manufacturers conditions. Cells were grown at 37 °C with 5% CO2 to 4 × 10^6 cells/mL using an orbital shaker set to 95 RPM. Next cells were split to 2 × 10^6 cells/mL and transfected with plasmid DNA at a 1 µg/mL final concentration in Optimem (Gibco 31985070) using the Expifectamine 293 transfection reagent according to manufacturer’s conditions. After approximately 18 h, enhancers 1 and 2 (provided with kit). Viability was typically about 85%. When cIAP1^FL was transfected, it was detected via α-cIAP1 antibody there was typically some autoubiquitination detected, and thus often appeared as a laddered or smeared band via western blotting. When BTK^FL variants were transfected, they were detected using anti-BTK antibody (D3H5).
For covalent modification detection assays, the compound was added to Expi293 cells after enhancer treatment. At each timepoint 10 mL of cells were harvested, rapidly cooled to 4 °C in an ice bath, and centrifuged at 100 x g at 4 °C for 5 min. The pellet was washed twice with ice-cold PBS, snap-frozen in liquid nitrogen, and stored at −80 °C. Each pellet was resuspended in 0.1 mL ice-cold RIPA Buffer supplemented with 40 µM BCNC (to outcompete any remaining BCCov), protease inhibitor, and benzonase, and sonicated with 10 brief blasts at power 20. Lysate was centrifuged at 15 K x g for 20 min at 4 °C and prepared for western blotting as detailed above. When samples were evaluated for covalent adduct formation, a purification step was required. Briefly, the ~1 mL of clarified lysate was added to 9 mL of FLAG binding buffer (25 mM HEPES 7.5, 300 mM NaCl, 10% glycerol). These samples were incubated with 250 µL of anti-FLAG M2 affinity resin (Millipore-Sigma Cat. # A2220) for 3 h at 4 °C with gentle nutation. Samples were washed via gravity column filtration and eluted with 0.2 mg/ml FLAG Peptide (DYKDDDDK, CPC Scientific Peptide Company). Each sample was concentrated to 0.1 mg/mL using an Amicon Ultra-15 Centrifugal filter with a 50 kDa MWCO (Millipore-Sigma Cat. # UFC905024). Details on mass spectrometry analysis are below.

BTK^FL = target: T2, BTK^FL (Homo sapiens, UniProt Q06187+Q13490); assay: Expi293 dose-dependent BTK degradation (western blot), BTK^FL co-transfected with cIAP1^FL; details: for DC50: Expi293, cIAP1^FL co-transfected, ~18 h, 3 experiments, read-out: DC50 for degradation of BTK^FL (WT)
T2 construct: we used a full-length BTK (aa1-659) with a C terminal Tobacco Etch Virus protease (TEV) site; expressed in transfected cells; host or cells: Expi293 (HEK293)
T2 sequence (Q06187 whole entry, the tested form may be a part): as the sequence (Q06187 whole entry C481S, the tested form may be a part) above, with S481C counted along it
T2 sequence (Q13490 whole entry, the tested form may be a part): as the sequence (Q13490 whole entry, the tested form may be a part) above
Description: as §1
(§2) For dose-dependent degradation assays, cells were plated in a 24-well format and placed on a separate orbital shaker set to 115 RPM. Each well was treated with prescribed compound concentrations in the same manner as with THP-1 cells, with the exception of using Expifectamine 293 growth medium in place of RPMI 1640 complete media. After approximately 18 h post-treatment cells were harvested, centrifuged at 100 x g at 4 °C, washed twice with ice-cold PBS, and resuspended in RIPA buffer supplemented with a Roche protease inhibitor cocktail (Cat. #11873580001), and benzonase nuclease (Millipore-Sigma Cat# 70664). Each sample was incubated on ice for 30 min with periodic vortexing and centrifuged at 15 Kxg for 20 min. Clarified lysate was harvested and quantified using a Pierce BCA Assay Kit (Cat. #23225), and 20 µg of the sample was loaded into a 4–15% Criterion TGX gel (Bio-Rad, 5678085) and transferred to a nitrocellulose membrane (Life Technologies Cat. #IB23001) using an iBlot 2 (Life Technologies Cat. #IB21001). Proteins were detected using an iBind system (Life Technologies SLF2020). For BTK^T474I and BTK^T474I/C481S we inferred ligand entry into cells via the autoubiquitination and dose-dependent degradation of cIAP1^FL,[58].
(§3) Dose-dependent Degradation was analyzed using ImageJ (NIH, version 1.50i). Densiometric analysis was performed, normalized to DMSO signal, and analyzed using GraphPad Prism (Version 9.0.0 (121)). Non-linear fit one-phase decay analysis was used to obtain DC50 values. When we observed a hook effect, some points were excluded as part of the fit. In Supplementary Fig. 7B the complete curve was fit using GraphPad Prism non-linear regression bell-shaped curve where X is the concentration. However, using this method we were unable to obtain stable values for our DC50. SEM error was plotted for each point. When determining statistically significant differences, we used a two-sided student’s unpaired T-Test.

BTK^FL-C481S [2] = target: T1, BTK^FL-C481S; assay: Expi293 dose-dependent BTK degradation (western blot), BTK^FL-C481S co-transfected with cIAP1^FL; details: for C481S BTK blot signal normalized to DMSO: replicates; for DC50: Expi293, cIAP1^FL co-transfected, ~18 h, 3 experiments
Description: as §1, §2, §3

CNC(C)C(=O)NC(C(=O)N1CC(NC(=O)COCCN2CCN(CC=CC(=O)N3CCCC(n4nc(-c5ccc(Oc6ccccc6)cc5)c5c(N)ncnc54)C3)CC2)CC1C(=O)NC1CCCc2ccccc21)C1CCCCC1 (stereo not drawn) [BCCov]
rate of BTK^FL-C481S degradation compared with BTK^FL (BTK^FL-C481S [1]): slower rate | BTK^FL-C481S blot signal normalized to time 0 (BTK^FL-C481S [1]; 0.5 h): 0.75 and 0.78 and 0.82 | BTK^FL-C481S blot signal normalized to time 0 (BTK^FL-C481S [1]; 1 h): 0.77 and 0.74 and 0.81 | BTK^FL-C481S blot signal normalized to time 0 (BTK^FL-C481S [1]; 2 h): 0.71 and 0.76 and 0.72 | BTK^FL-C481S blot signal normalized to time 0 (BTK^FL-C481S [1]; 3.5 h): 0.60 and 0.65 and 0.66 | BTK^FL-C481S blot signal normalized to time 0 (BTK^FL-C481S [1]; 5.5 h): 0.58 and 0.55 and 0.61 | BTK^FL-C481S blot signal normalized to time 0 (BTK^FL-C481S [1]; 7 h): 0.41 and 0.48 and 0.42 | BTK^FL-C481S blot signal normalized to time 0 (BTK^FL-C481S [1]; 17 h): 0.07 (2×) and 0.02 | WT BTK blot signal normalized to DMSO (BTK^FL; 0.004883 uM, replicates): 0.92 and 0.99 and 1.00 | WT BTK blot signal normalized to DMSO (BTK^FL; 0.009766 uM, replicates): 0.74 and 1.02 and 0.84 | WT BTK blot signal normalized to DMSO (BTK^FL; 0.019531 uM, replicates): 0.72 and 0.83 and 0.75 | WT BTK blot signal normalized to DMSO (BTK^FL; 0.039063 uM, replicates): 0.52 and 0.87 and 0.78 | WT BTK blot signal normalized to DMSO (BTK^FL; 0.078125 uM, replicates): 0.38 and 0.65 and 0.51 | WT BTK blot signal normalized to DMSO (BTK^FL; 0.15625 uM, replicates): 0.29 and 0.54 and 0.30 | WT BTK blot signal normalized to DMSO (BTK^FL; 0.3125 uM, replicates): 0.25 and 0.36 and 0.30 | WT BTK blot signal normalized to DMSO (BTK^FL; 0.625 uM, replicates): 0.21 and 0.32 and 0.16 | WT BTK blot signal normalized to DMSO (BTK^FL; 1.25 uM, replicates): 0.20 and 0.35 and 0.15 | WT BTK blot signal normalized to DMSO (BTK^FL; 2.5 uM, replicates): 0.24 and 0.40 and 0.29 | BTK level normalized to untreated BTK^FL, Figure 1B Lane 2 (BTK^FL; 5 µM, BTK^FL without cIAP1^FL, replicates): 1.30 and 0.97 and 0.91 | WT BTK blot signal normalized to DMSO (BTK^FL; 5 uM, replicates): 0.68 and 0.77 and 0.51 | BTK degradation without cIAP1^FL (BTK^FL; BTK^FL transfected without cIAP1^FL (Fig. 1B, lane 2)): no observable ligand-induced BTK degradation | DC50 (BTK^FL): 57.2 ± 28 nM | hook effect in degradation profile (BTK^FL; wt BTK^FL, Expi293): partial hook effect | C481S BTK blot signal normalized to DMSO (BTK^FL-C481S [2]; 0.004883 uM): 0.87 and 0.90 and 0.91 | C481S BTK blot signal normalized to DMSO (BTK^FL-C481S [2]; 0.009766 uM): 0.89 and 0.76 and 0.79 | C481S BTK blot signal normalized to DMSO (BTK^FL-C481S [2]; 0.019531 uM): 0.87 and 0.66 and 0.82 | C481S BTK blot signal normalized to DMSO (BTK^FL-C481S [2]; 0.039063 uM): 0.76 and 0.72 and 0.87 | C481S BTK blot signal normalized to DMSO (BTK^FL-C481S [2]; 0.078125 uM): 0.63 and 0.53 and 0.56 | C481S BTK blot signal normalized to DMSO (BTK^FL-C481S [2]; 0.15625 uM): 0.51 and 0.41 and 0.42 | C481S BTK blot signal normalized to DMSO (BTK^FL-C481S [2]; 0.3125 uM): 0.35 and 0.41 and 0.28 | C481S BTK blot signal normalized to DMSO (BTK^FL-C481S [2]; 0.625 uM): 0.26 and 0.34 and 0.16 | C481S BTK blot signal normalized to DMSO (BTK^FL-C481S [2]; 1.25 uM): 0.27 and 0.20 and 0.13 | C481S BTK blot signal normalized to DMSO (BTK^FL-C481S [2]; 2.5 uM): 0.21 and 0.11 and 0.057 | C481S BTK blot signal normalized to DMSO (BTK^FL-C481S [2]; 5 uM): 0.21 and 0.09 and 0.0641 | DC50 (BTK^FL-C481S [2]): 122 ± 44 nM

CNC(C)C(=O)NC(C(=O)N1CC(NC(=O)COCCN2CCN(CCCC(=O)N3CCCC(n4nc(-c5ccc(Oc6ccccc6)cc5)c5c(N)ncnc54)C3)CC2)CC1C(=O)NC1CCCc2ccccc21)C1CCCCC1 (stereo not drawn) [BCNC]
BTK^FL-C481S blot signal normalized to time 0 (BTK^FL-C481S [1]; 0.5 h): 0.79 and 0.85 and 0.76 | BTK^FL-C481S blot signal normalized to time 0 (BTK^FL-C481S [1]; 1 h): 0.74 and 0.81 and 0.78 | BTK^FL-C481S blot signal normalized to time 0 (BTK^FL-C481S [1]; 2 h): 0.68 and 0.72 and 0.69 | BTK^FL-C481S blot signal normalized to time 0 (BTK^FL-C481S [1]; 3.5 h): 0.53 and 0.64 and 0.52 | BTK^FL-C481S blot signal normalized to time 0 (BTK^FL-C481S [1]; 5.5 h): 0.35 and 0.44 and 0.38 | BTK^FL-C481S blot signal normalized to time 0 (BTK^FL-C481S [1]; 7 h): 0.35 and 0.32 and 0.33 | BTK^FL-C481S blot signal normalized to time 0 (BTK^FL-C481S [1]; 17 h): 0.00 and 0.04 (2×) | WT BTK blot signal normalized to DMSO (BTK^FL; 0.004883 uM, replicates): 0.92 and 1.00 (2×) | WT BTK blot signal normalized to DMSO (BTK^FL; 0.009766 uM, replicates): 0.74 and 1.02 and 0.84 | WT BTK blot signal normalized to DMSO (BTK^FL; 0.019531 uM, replicates): 0.72 and 0.83 and 0.75 | WT BTK blot signal normalized to DMSO (BTK^FL; 0.039063 uM, replicates): 0.52 and 0.87 and 0.78 | WT BTK blot signal normalized to DMSO (BTK^FL; 0.078125 uM, replicates): 0.38 and 0.65 and 0.51 | WT BTK blot signal normalized to DMSO (BTK^FL; 0.15625 uM, replicates): 0.29 and 0.54 and 0.30 | WT BTK blot signal normalized to DMSO (BTK^FL; 0.3125 uM, replicates): 0.25 and 0.36 and 0.30 | WT BTK blot signal normalized to DMSO (BTK^FL; 0.625 uM, replicates): 0.21 and 0.32 and 0.16 | WT BTK blot signal normalized to DMSO (BTK^FL; 1.25 uM, replicates): 0.2 and 0.35 and 0.15 | WT BTK blot signal normalized to DMSO (BTK^FL; 2.5 uM, replicates): 0.24 and 0.40 and 0.29 | WT BTK blot signal normalized to DMSO (BTK^FL; 5 uM, replicates): 0.68 and 0.77 and 0.51 | DC50 (BTK^FL): 149 ± 70 nM | C481S BTK blot signal normalized to DMSO (BTK^FL-C481S [2]; 0.004883 uM): 0.87 and 1.00 (2×) | C481S BTK blot signal normalized to DMSO (BTK^FL-C481S [2]; 0.009766 uM): 0.89 and 0.76 and 0.79 | C481S BTK blot signal normalized to DMSO (BTK^FL-C481S [2]; 0.019531 uM): 0.87 and 0.66 and 0.82 | C481S BTK blot signal normalized to DMSO (BTK^FL-C481S [2]; 0.039063 uM): 0.76 and 0.72 and 0.87 | C481S BTK blot signal normalized to DMSO (BTK^FL-C481S [2]; 0.078125 uM): 0.63 and 0.53 and 0.56 | C481S BTK blot signal normalized to DMSO (BTK^FL-C481S [2]; 0.15625 uM): 0.51 and 0.41 and 0.42 | C481S BTK blot signal normalized to DMSO (BTK^FL-C481S [2]; 0.3125 uM): 0.35 and 0.41 and 0.28 | C481S BTK blot signal normalized to DMSO (BTK^FL-C481S [2]; 0.625 uM): 0.26 and 0.34 and 0.16 | C481S BTK blot signal normalized to DMSO (BTK^FL-C481S [2]; 1.25 uM): 0.27 and 0.20 and 0.13 | C481S BTK blot signal normalized to DMSO (BTK^FL-C481S [2]; 2.5 uM): 0.21 and 0.11 and 0.057 | C481S BTK blot signal normalized to DMSO (BTK^FL-C481S [2]; 5 uM): 0.21 and 0.09 and 0.0641 | DC50 (BTK^FL-C481S [2]): 145 ± 58 nM
